Source: patent US20220062319A1, “COMBINATION IN THE TREATMENT OF NONTUBERCULOUS MYCOBACTERIAL DISEASES” (priority 2019, published 2022)
Converted amounts (≈) assume the structure as drawn. Where two headings read alike, the source gives them in different places.

Columns and labels:
Mycobacterium avium = test: REMA MIC and MBC, M. avium; assay type: cell-based; settings: M. avium clinical isolates (×4), one line per isolate; for MIC: REMA
[1] = system: M. avium/M. intracellulare (MAC); test: Bedaquiline MIC, MAC; assay type: cell-based
M. fortuitum = test: Bedaquiline MIC, M. fortuitum; assay type: cell-based
Mycobacterium xenopi = test: REMA MIC, control strain; assay type: cell-based; settings: 168 h, control strain M. xenopi (×1), 7H9, 7 days
M. kansasii = test: Bedaquiline MIC, M. kansasii; assay type: cell-based; settings: Mycobacterium kansasii, n=1, read-out: MIC Median
M. bovis = test: microbe, parasite or virus in culture; assay type: cell-based; settings: Mycobacterium tuberculosis variant bovis, read-out: MIC Median
Mycobacterium kansasii = test: REMA MIC and MBC, M. kansasii; assay type: cell-based
M. smegmatis = test: Bedaquiline MIC, M. smegmatis; assay type: cell-based
Mycobacterium marinum = test: REMA MIC and MBC, M. marinum; assay type: cell-based
[2] = system: NTM clinical isolates (slow grower mycobacteria); test: MBC determination, NTM clinical isolates overall; assay type: cell-based; settings: MBC = lowest concentration killing 100% of the bacteria
Experimental: The MBC test allows determination of the minimum concentration of an agent necessary to achieve a bactericidal effect. The MBC was determined once the MIC was determined previously. To perform the MBC, the dilution representing the MIC and at least two of the more concentrated test product dilutions were plated and enumerated to determine viable CFU/ml. […] NTM clinical isolates used for this study were isolated from patients. In total, there were 18 isolates (in addition to the control strain): mycobacterium avium (x4 isolates), mycobacterium intracellulare (x4), mycobacterium chimaera (x3), mycobacterium kansasii (x2), mycobacterium ulcerans (x2), mycobacterium simiae (x2) and mycobacterium marinum (x1). […] MBC was considered the lowest concentration at which the bedaquiline kills 100% of the bacteria.

Mycobacterium chimaera = test: REMA MIC and MBC, M. chimaera; assay type: cell-based; settings: Mycobacterium intracellulare, M. chimaera clinical isolates (×3), one line per isolate; for MIC: REMA
[3] = in vivo; cited from earlier work
[4] = system: Mycobacterium intracellulare; test: REMA MIC and MBC, M. intracellulare; assay type: cell-based; settings: M. intracellulare clinical isolates (×4), one line per isolate; for MIC: REMA
M. ulcerans = test: Bedaquiline MIC, M. ulcerans; assay type: cell-based; settings: Mycobacterium ulcerans
[5] = system: other mycobacterial species; test: organism not typed; assay type: cell-based
M. marinum = test: Bedaquiline MIC, M. marinum; assay type: cell-based; settings: Mycobacterium marinum, n=1, read-out: MIC Median
Mycobacterium simiae = test: REMA MIC and MBC, M. simiae; assay type: cell-based; settings: M. simiae clinical isolates (×2), one line per isolate; for MIC: REMA
M. abscessus = test: Bedaquiline MIC, M. abscessus; assay type: cell-based; settings: Mycobacteroides abscessus

SMILES: COc1nc2ccc(Br)cc2cc1[C@@H](c1ccccc1)[C@@](O)(CCN(C)C)c1cccc2ccccc12 [Bedaquiline, (alpha S, beta R)-6-bromo-alpha-[2-(dimethylamino)ethyl]-2-methoxy-alpha-1-naphthalenyl-beta-phenyl-3-quinolineethanol]
- MBC (Mycobacterium avium): 1 µg/mL (≈ 1.8 µM)
- MIC (Mycobacterium avium): 0.015 µg/mL (≈ 0.027 µM)
- MIC (Mycobacterium avium; read-out: MIC): 0.007 µg/mL (≈ 0.0126 µM)
- MIC ([1]; Mycobacterium avium, n=7, read-out: MIC Median): 0.01 µg/mL (≈ 0.018 µM)
- MIC range ([1]; n=7): 0.007 to 0.010 µg/mL
- MIC (M. fortuitum; Mycolicibacterium fortuitum, n=5, read-out: MIC Median): 0.01 µg/mL (≈ 0.018 µM)
- MIC range (M. fortuitum; n=5): 0.007 to 0.010 µg/mL
- MIC (Mycobacterium xenopi): > 2 µg/mL
- MIC (M. kansasii): 0.003 µg/mL (≈ 0.0054 µM)
- MIC (M. bovis): 0.003 µg/mL (≈ 0.0054 µM)
- MIC (Mycobacterium kansasii): 0.015 µg/mL (≈ 0.027 µM)
- MIC (M. smegmatis; Mycolicibacterium smegmatis, n=7, read-out: MIC Median): 0.007 µg/mL (≈ 0.0126 µM)
- MIC range (M. smegmatis; n=7): 0.003 to 0.10 µg/mL
- MIC (Mycobacterium marinum): 0.015 µg/mL (≈ 0.027 µM)
- MBC (Mycobacterium marinum; M. marinum clinical isolate (×1)): 2 µg/mL (≈ 3.6 µM)
- bactericidal activity [2]: bactericidal activity for the majority of clinical isolates tested
- MBC (Mycobacterium chimaera): 1 µg/mL (≈ 1.8 µM)
- MIC (Mycobacterium chimaera): 0.015 µg/mL (≈ 0.027 µM)
- MIC (Mycobacterium chimaera; read-out: MIC): 0.007 µg/mL (≈ 0.0126 µM)
- improvement of bioavailability with food [3]: approximately 2 fold
- MBC [4]: 2 µg/mL (≈ 3.6 µM)
- MIC [4]: 0.015 µg/mL (≈ 0.027 µM)
- MIC ([4]; read-out: MIC): 0.007 µg/mL (≈ 0.0126 µM)
- MIC (M. ulcerans; 1 isolate of M. ulcerans, read-out: MIC): 0.5 µg/mL (≈ 0.9 µM)
- MIC (M. ulcerans; M. ulcerans, n=1, read-out: MIC Median): 0.5 µg/mL (≈ 0.9 µM)
- MIC [5]: < 0.1 µg/mL
- MIC (M. marinum): 0.003 µg/mL (≈ 0.0054 µM)
- MBC (Mycobacterium simiae): 1 µg/mL (≈ 1.8 µM)
- MIC (Mycobacterium simiae): 0.015 µg/mL (≈ 0.027 µM)
- MIC (Mycobacterium simiae; read-out: MIC): 0.03 µg/mL (≈ 0.054 µM)
- MIC (M. abscessus; 1 isolate of M. abscessus, read-out: MIC): 0.25 µg/mL (≈ 0.45 µM)
- MIC (M. abscessus; M. abscessus, n=1, read-out: MIC Median): 0.25 µg/mL (≈ 0.45 µM)
